Source: patent US20250034211A1, “C-TERMINAL EXTENDED P53 ACTIVATOR CROSSLINKED PEPTIDOMIMETIC MACROCYCLES AGAINST MDM2/MDMX” (Merck Sharp & Dohme LLC, priority 2021, published 2025)
Converted amounts (≈) assume the structure as drawn. Read-outs that look alike come from different tables or passages of the source. Where a SMILES comes first, the peptide text is derived from it. Bridges are numbered along the chain shown (N, C = ends). [ ]: non-standard residue; d: D form. Lys(N3) = [N-]=[N+]=NCCCC[C@H](N)C(=O)O; Gla = N[C@@H](CC(C(=O)O)C(=O)O)C(=O)O; R8 = C=CCCCCCC[C@@](C)(N)C(=O)O; Cba = N[C@@H](CC1CCC1)C(=O)O; S5 = C=CCCC[C@](C)(N)C(=O)O; Aib = CC(C)(N)C(=O)O; βAla = NCCC(=O)O

How the values were obtained:
[1] = system: Jump-In T-REx CHO-K1 BLA cells; assay: Tetracycline beta-lactamase reporter gene assay (counter screen); format: cell-based
Description: Based on Jump-In™ T-REx™ CHO-K1 BLA cells and contain a stably integrated β-lactamase under the control of an inducible CMV promoter. Cells were seeded into a 384-well plate a density of 4000 cells per well. Cells were maintained in Dulbecco's Minimal Eagle Medium (DMEM) with 10% fetal bovine serum (FBS), Blasticidin and Penicillin/Streptomycin. The cells were incubated for 24 hours, followed by cell media removal and replacement with Opti-MEM either containing 10% FBS or 0% FBS. Peptides were then dispensed to each well using a liquid handler, ECHO 555 and incubated for 4/16 hours. Final working concentration of DMSO was 0.5%. β-Lactamase activity was detected using the ToxBLAzer Dual Screen (Invitrogen) as per manufacturer's instructions. Measurements were carried out using Envision multiplate reader (Perkin Elmer). Counter Screen activity was defined as the amount of 0-lactamase activity induced by tetracycline.

[2] = Circular dichroism (CD) helicity; format: physicochemical
Description: The dried peptide was reconstituted in a buffer containing 1 mM HEPES pH 7.4 and 5% methanol to a concentration of 1 mM. The peptide sample was placed in a quartz cuvette with a path length of 0.2 cm and a CD spectrum was recorded from 300 to 190 nm at 25° C. using the Chirascan-plus qCD machine (Applied Photophysics). The actual concentration of the peptide was determined by the absorbance of the peptide at […]. An estimate of the secondary structure components of the peptide was carried out by converting the CD spectrum to mean residue ellipticity before deconvoluting using the CDNN software (distributed by Applied Photophysics). All experiments were done in duplicate.

[3] = molecular target: T1, MDM2 (1-125; SEQ ID NO 14) (Homo sapiens, UniProt Q00987); assay: MDM2 binding assay (fluorescence anisotropy competition, FP)
T1 construct: GST (N); His6 (internal); TEV cleavage site ENLYFQG (internal); made in house; host or cells: E. coli BL21 (DE3) Rosetta T1R
T1 sequence (Q00987 with tags, fused parts or gaps): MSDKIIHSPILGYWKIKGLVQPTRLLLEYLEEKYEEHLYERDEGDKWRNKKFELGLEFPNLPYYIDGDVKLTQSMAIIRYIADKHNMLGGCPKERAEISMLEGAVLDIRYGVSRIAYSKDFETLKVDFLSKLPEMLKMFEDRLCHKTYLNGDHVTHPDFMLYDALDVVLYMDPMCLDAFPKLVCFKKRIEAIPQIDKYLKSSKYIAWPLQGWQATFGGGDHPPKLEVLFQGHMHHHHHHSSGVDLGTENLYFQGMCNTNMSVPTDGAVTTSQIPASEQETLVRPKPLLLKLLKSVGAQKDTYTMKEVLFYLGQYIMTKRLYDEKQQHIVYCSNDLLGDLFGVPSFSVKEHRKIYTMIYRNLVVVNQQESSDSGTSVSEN
Description: [P] is the protein concentration (MDM2), [L] is the labeled peptide concentration, r is the anisotropy measured, r0 is the anisotropy of the free peptide, rb is the anisotropy of the MDM2-FAM-labeled peptide complex, Kd is the dissociation constant, [L]t is the total FAM labeled peptide concentration, and [P]t is the total MDM2 concentration. […] The competing molecules were then titrated against the complex of the FAM-labeled peptide and protein. Apparent Kd values were determined by fitting the experimental data to the equations shown below:
[L]st and [L]t denote labeled ligand and total unlabeled ligand input concentrations, respectively. Kd2 is the dissociation constant of the interaction between the unlabeled ligand and the protein. In all competition experiments, it is assumed that [P]t>[L]st, otherwise considerable amounts of free labeled ligand would always be present and would interfere with measurements. […] The FAM-labeled peptide was dissolved in dimethyl sulfoxide (DMSO) at 1 mM and diluted into experimental buffer. Readings were carried out with an Envision Multilabel Reader (PerkinElmer). […] All titrations were carried out in triplicate. Curve-fitting was carried out using Prism 4.0 (GraphPad). […] Negative control titrations of the ligands under investigation were also carried out with the fluorescently labeled peptide (in the absence of MDM2) to ensure no interactions were occurring between the ligands and the FAM-labeled peptide.

HCT116 cells = assay: Lactate dehydrogenase release assay (LDH); format: cell-based
Description: HCT116 cells were seeded into a 384-well plate at a density of 8000 cells per well. Cells were maintained in McCoy's 5A Medium with 10% fetal bovine serum (FBS), Blasticidin and Penicillin/Streptomycin. The cells were incubated overnight followed by the removal of cell media and the addition of Opti-MEM Medium without FBS. Cells were then treated with peptides for 4/16 hours in Opti-MEM either in 10% FBS or serum free. Final concentration of DMSO was 0.5%. Lactate dehydrogenase release was detected using CytoTox-ONE Homogenous Membrane Integrity Assay Kit (Promega) as per manufacturer's instructions. Measurements were carried out using Tecan plate reader. Maximum LDH release was defined as the amount of LDH released induced by the lytic peptide (iDNA79) and used to normalize the results.

p53 null Ca Ski = conditions: for % inhibition at maximum concentration in p53 null negative control cell line: maximum assay concentration (50 uM)
[4] = system: p53 (HCT116 cells stably transfected with a p53 responsive β-lactamase reporter); assay: p53 beta-lactamase reporter gene cellular functional assay; format: cell-based
Description: HCT116 cells were stably transfected with a p53 responsive β-lactamase reporter, and were seeded into a 384-well plate at a density of 8,000 cells per well. Cells were maintained in McCoy's 5A Medium with 10% fetal bovine serum ([…]), Blasticidin and Penicillin/Streptomycin. The cells were incubated overnight and followed by removal of cell growth media and replaced with Opti-MEM either containing 0% FBS or 10% FBS. Peptides were then dispensed to each well using a liquid handler, ECHO 555 and incubated for 4/16 hours. Final working concentration of dimethyl sulfoxide (DMSO) was 0.5%. β-Lactamase activity was detected using the ToxBLAzer Dual Screen (Invitrogen) as per manufacturer's instructions. Measurements were done using Envision multiplate reader (Perkin-Elmer). Maximum p53 activity was defined as the amount of β-lactamase activity induced by 50 μM azide-ATSP-7041 (stapled p53 peptide; Aileron Therapeutics, Inc.). This was determined as the highest amount of p53 activity induced by azide-ATSP-7041 by titration on HCT116 cells.

Solubility (PBS, pH 7) = conditions: for solubility: PBS, pH 7
[5] = read-out: HCT116 proliferation EC50, 72 h, 10% serum

With `CC(=O)N[C@@H](CCCCN=[N+]=[N-])C(=O)NCCC(=O)N[C@@H](CC(C)C)C(=O)N[C@H](C(=O)N[C@@H](Cc1ccccc1)C(=O)N[C@]1(C)CCCCCCC=CCCC[C@@](C)(C(=O)N[C@@H](C)C(=O)N[C@@H](C)C(=O)N[C@@H](Cc2ccccc2)C(=O)NC(C)(C)C(=O)N[C@@H](C)C(=O)N[C@@H](C)C(N)=O)NC(=O)[C@H](CC2CCC2)NC(=O)[C@H](CCC(N)=O)NC(=O)[C@H](C)NC(=O)[C@H](Cc2c[nH]c3ccccc23)NC(=O)[C@H](Cc2ccc(O)cc2)NC(=O)[C@H](CCC(=O)O)NC1=O)[C@@H](C)O` [Macrocycle 8, Ac-K(N3)-betaAla-L-T-F-X1a-E-Y-W-A-Q-Cba-X2a-AAF-Aib-AA-NH2(olefinstaple from X1ato X2a)] (Ac-[Lys(N3)][βAla]LTF[R8]EYWAQ[Cba][S5]AAF[Aib]AA-NH2; staple 6-13) the EC50 ([1]; 0% FBS, 4 h) was greater than 50 µM, the EC50 ([1]; 10% FBS, 16 h) was greater than 50 µM and the “CD (% helicity)” value [2] was 35%. For the same molecule, the Kd [3] was 7.4 nM, the EC50 (HCT116 cells; 0% FBS, 4 h) was 16.7 µM and the EC50 (HCT116 cells; 10% FBS, 16 h) was greater than 50 µM.

In the case of `CC(=O)N[C@@H](CCCCN=[N+]=[N-])C(=O)NCCC(=O)N[C@@H](CC(C)C)C(=O)N[C@H](C(=O)N[C@@H](Cc1ccccc1)C(=O)N[C@]1(C)CCCCCCC=CCCC[C@@](C)(C(=O)N[C@@H](CC(C(=O)O)C(=O)O)C(=O)N[C@@H](C)C(=O)N[C@@H](C)C(=O)N[C@@H](C)C(=O)N[C@@H](C)C(=O)N[C@@H](C)C(N)=O)NC(=O)[C@H](CC2CCC2)NC(=O)[C@H](CCC(N)=O)NC(=O)[C@H](C)NC(=O)[C@H](Cc2c[nH]c3ccccc23)NC(=O)[C@H](Cc2ccc(O)cc2)NC(=O)[C@H](CCC(=O)O)NC1=O)[C@@H](C)O` [Macrocycle 11, Ac-K(N3)-betaAla-L-T-F-X1a-E-Y-W-A-Q-Cba-X2a-(Gla)AAAAA-NH2(olefinstaple from X1ato X2a)] (Ac-[Lys(N3)][βAla]LTF[R8]EYWAQ[Cba][S5][Gla]AAAAA-NH2; staple 6-13), the “p53 null Ca Ski proliferation % Max” value (p53 null Ca Ski; 72 h, 10% serum) is reported as −18%, the “% inhibition at maximum concentration in p53 null negative control cell line” value (p53 null Ca Ski) is reported as −18% and the chromatographic logD (HPLC LogD) is reported as 2.25. The “HCT116 proliferation % Max” value (HCT116; 72 h, 10% serum) was 73%, the “fold improvement in HTC116 cell proliferation assay” value (HCT116; as compared to Macrocycle 3) was “at least 2 fold” and the EC50 (HCT116; [5]) was 790 nM. For the same molecule, the EC50 ([1]; 0% FBS, 4 h) was greater than 50 µM, the EC50 ([1]; 10% FBS, 16 h) was greater than 50 µM and the EC50 ([4]; 10% serum at 16 hours) was 527 nM. The “solubility (in words)” value (Solubility (PBS, pH 7)) was “excellent solubility”, the solubility (Solubility (PBS, pH 7)) was 163 µM (≈ 370 µg/mL) and the Kd [3] was 0.32 nM. For the same molecule, the EC50 (HCT116 cells; 0% FBS, 4 h) was greater than 50 µM and the EC50 (HCT116 cells; 10% FBS, 16 h) was greater than 50 µM.

For `CC(=O)N[C@@H](CCCCN=[N+]=[N-])C(=O)NCCC(=O)N[C@@H](CC(C)C)C(=O)N[C@H](C(=O)N[C@@H](Cc1ccccc1)C(=O)N[C@]1(C)CCCCCCC=CCCC[C@@](C)(C(=O)N[C@@H](C)C(=O)N[C@@H](C)C(=O)N[C@@H](CCC(=O)O)C(=O)N[C@@H](C)C(=O)N[C@@H](C)C(=O)N[C@H](C)C(N)=O)NC(=O)[C@H](CC2CCC2)NC(=O)[C@H](CCC(N)=O)NC(=O)[C@H](C)NC(=O)[C@H](Cc2c[nH]c3ccccc23)NC(=O)[C@H](Cc2ccc(O)cc2)NC(=O)[C@H](CCC(=O)O)NC1=O)[C@@H](C)O` [Macrocycle 10, Ac-K(N3)-betaAla-L-T-F-X1a-E-Y-W-A-Q-Cba-X2a-AAEAA-(D-Ala)-NH2(olefinstaple from X1ato X2a)] (Ac-[Lys(N3)][βAla]LTF[R8]EYWAQ[Cba][S5]AAEAA[dA]-NH2; staple 6-13), the “% inhibition at maximum concentration in p53 null negative control cell line” value (p53 null Ca Ski) was −18%, the logD (HPLC LogD) was 2.14 and the “solubility (in words)” value (Solubility (PBS, pH 7)) was “excellent solubility”. The solubility (Solubility (PBS, pH 7)) was 154 µM (≈ 343 µg/mL), the Kd [3] was 3.1 nM and the EC50 (HCT116 cells; 0% FBS, 4 h) was greater than 50 µM. For the same molecule, the EC50 (HCT116 cells; 10% FBS, 16 h) was greater than 50 µM.

In the case of `CC(=O)N[C@@H](CCCCN=[N+]=[N-])C(=O)NCCC(=O)N[C@@H](CC(C)C)C(=O)N[C@H](C(=O)N[C@@H](Cc1ccccc1)C(=O)N[C@]1(C)CCCCCCC=CCCC[C@@](C)(C(=O)N[C@@H](C)C(=O)N[C@@H](C)C(=O)N[C@@H](Cc2ccccc2)C(=O)N[C@@H](C)C(=O)N[C@@H](C)C(=O)N[C@@H](Cc2ccccc2)C(N)=O)NC(=O)[C@H](CC2CCC2)NC(=O)[C@H](CCC(N)=O)NC(=O)[C@H](C)NC(=O)[C@H](Cc2c[nH]c3ccccc23)NC(=O)[C@H](Cc2ccc(O)cc2)NC(=O)[C@H](CCC(=O)O)NC1=O)[C@@H](C)O` [Macrocycle 4, Ac-K(N3)-betaAla-L-T-F-X1a-E-Y-W-A-Q-Cba-X2a-AAFAAF-NH2 (olefin staple from X1a to X2a)] (Ac-[Lys(N3)][βAla]LTF[R8]EYWAQ[Cba][S5]AAFAAF-NH2; staple 6-13), the “HCT116 proliferation % Max” value (HCT116; 72 h, 10% serum) is reported as 68%, the EC50 (HCT116; [5]) is reported as 1210 nM and the EC50 (HCT116; read-out: cellular efficacy in cell proliferation HTC116 p53 positive control cell lines) is reported as 1220 nM. For the same molecule, the EC50 ([1]; 0% FBS, 4 h) was 34.5 µM, the EC50 ([1]; 10% FBS, 16 h) was greater than 50 µM and the “CD (% helicity)” value [2] was 45%. The EC50 ([4]; 0% serum at 4 hours) was 36 nM, the EC50 ([4]; 10% serum at 16 hours) was 237 nM and the Kd [3] was 27 nM. The EC50 (HCT116 cells; 0% FBS, 4 h) was greater than 50 µM and the EC50 (HCT116 cells; 10% FBS, 16 h) was greater than 50 µM.

With `CC(=O)N[C@@H](CCCCN=[N+]=[N-])C(=O)NCCC(=O)N[C@@H](CC(C)C)C(=O)N[C@H](C(=O)N[C@@H](Cc1ccccc1)C(=O)N[C@]1(C)CCCCCCC=CCCC[C@@](C)(C(=O)N[C@@H](C)C(=O)N[C@@H](C)C(=O)N[C@@H](C)C(N)=O)NC(=O)[C@H](CC2CCC2)NC(=O)[C@H](CCC(N)=O)NC(=O)[C@H](C)NC(=O)[C@H](Cc2c[nH]c3ccccc23)NC(=O)[C@H](Cc2ccc(O)cc2)NC(=O)[C@H](CCC(=O)O)NC1=O)[C@@H](C)O` [Reference Macrocycle 1, Ac-K(N3)-betaAla-L-T-F-X1a-E-Y-W-A-Q-Cba-X2a-AAA-NH2 (olefin staple from X1a to X2a), reference compound] (Ac-[Lys(N3)][βAla]LTF[R8]EYWAQ[Cba][S5]AAA-NH2; staple 6-13) the logD (HPLC LogD) was 2.93, the EC50 ([1]; 0% FBS, 4 h) was greater than 50 µM and the EC50 ([4]; 0% serum at 4 hours) was 339 nM. The EC50 ([4]; 10% serum at 16 hours) was 847 nM, the solubility (Solubility (PBS, pH 7)) was 108 µM (≈ 211 µg/mL) and the Kd [3] was 36 nM. For the same molecule, the EC50 (HCT116 cells; 0% FBS, 4 h) was greater than 50 µM.
